Laboratory results taken from patent US10722467B2, “Remote loading of sparingly water-soluble drugs into liposomes” (ZONEONE PHARMA, INC., priority 2013, dated 2020).

What was measured:
Type in all cases: physicochemical
[1] = Reverse gradient-directed drug release from liposomes
Description: Liposomes were loaded with carfilzomib as described in Example 1 and were purified into deionized water. The sample was divided into two aliquots. To the first aliquot, concentrated Hepes pH 7.4 and NaCl was added so that the final concentration was 5 mM Hepes, 145 mM NaCl (HBS). To the second aliquot, concentrated ammonium sulfate was added so that the final concentration was 250 mM. No obvious physical changes were initially observed. The samples were then heated at 65° C. for 30 min. The samples were transferred to clean eppendorf tubes and centrifuged for 10,000 rpm for 5 min after which the supernatants and precipitates were separated and tested for carfilzomib content by HPLC assay. Released drug precipitated, liposome encapsulated drug remained in the supernatant. The % carfilzomib released was calculated by […]

[2] = Light scattering at 600 nm during carfilzomib loading
Description: Liposomes containing 250 mM ammonium sulfate as trapping agent and 250 mM sodium sulfate as control liposomes which would not remote load drug. The liposomes were prepared and loaded using the procedure described in Example 1 except a disposable polystyrene cuvette was used as the reaction vessel. The scattering of light at 600 nm was measured with a UV/vis spectrophotometer during the loading process.

[3] = Carfilzomib solubility as a function of DMSO content (optical density at 600 nm); conditions: drug 0.2 mg/mL
Description: Carfilzomib was added from a stock 10 mg/mL solution in DMSO to 1 mL of a citric acid/DMSO mixture so that the composition of DMSO was 2%, 25%, 50%, 75% and 100%. The final drug concentration was 0.2 mg/mL. The solutions were prepared and measured for optical density at 600 nm. The optical density at 600 nm is a good measure of how turbid or how much scattering material (such as drug precipitates) are in a solution, generally, the more precipitates the higher the absorbance. From FIG. 8 is apparent that at DMSO concentrations below 50% vol/vol (25° C.) and 25% vol/vol (65° C.) the drug remains in a precipitated form. Only when the concentration of DMSO is increased does it become effectively solubilized at this concentration of 0.2 mg/mL.

[4] = Liposome size by dynamic light scattering; conditions: carfilzomib-loaded liposomes, before lyophilizing
Description: (§1) The lipid concentration is determined by measuring the cholesterol by HPLC using an Agilent 1100 HPLC with and Agilent Zorbax 5 um, […], Eclipse XDB-C8 column and a mobile phase of A=0.1% TFA, B=0.1% TFA/MeOH with an isocratic elution of 99% B. The flow rate is 1.0 mL/min, column temperature is 50° C., 10 μL injection and detection by absorbance at 205 nm. The retention time of cholesterol is 4.5 min. The liposome size is measured by dynamic light scattering.
See Example 1, Carfilzomib liposome entrapment by remote loading for details on how the liposomes were made, purified and characterized.

[5] = Remote loading of carfilzomib into liposomes (drug/lipid ratio and loading efficiency by HPLC); conditions: for efficiency of loading: 100 g drug/mol HSPC
Description: Ammonium sulfate solution was prepared by dissolving ammonium sulfate solid to a final concentration of 250 mM (500 mequivilents of anion/L) no pH adjustment was made to yield a final pH of 5.6. Sodium sulfate solution (250 mM) was prepared by adding 0.35 g sodium sulfate to 10 mL deionized water.
The liposomes were formed by extrusion. Lipids were dissolved in ethanol at a concentration of 500 mM HSPC (591 mg/mL total lipid) at 65° C. and the 9 volumes of the trapping agent solution heated to 65° C. was added to the ethanol/lipid solution also at 65° C. The mixture was vortexed and transferred to a 10 mL thermostatically controlled (65° C.) Lipex Extruder. The liposomes were formed by extruding 10 times through polycarbonate membranes having 0.1 um pores. After extrusion the liposomes were cooled on ice. The transmembrane electrochemical gradient was formed by purification of the liposomes by dialysis in dialysis tubing having a molecular weight cut off of 12,000-14,000. The samples are dialyzed against 5 mM HEPES, 10% sucrose pH 6.5 (stirring at 4° C.) at volume that is 100 fold greater than the sample volume. The dialysate was changed after 2 h then 4 more times after 12 h each. The conductivity of the liposome solution was measured and was indistinguishable from the dialysis medium ˜40 μS/cm.
as §1
Carfilzomib (Selleck Chemicals) was dissolved in DMSO at a concentration of 10 mg/mL. […] The liposomes were diluted with 50 mM citrate, 10% sucrose pH 4.0 to increase the volume to a point where after addition of the drug the final DMSO concentration is 2%. The carfilzomib/DMSO was added to the diluted liposomes, which were mixed at room temperature then transferred to a 65° C. bath and swirled every 30 s for the first 3 min and then swirled every 5 min over a total heating time of 30 min. All samples were very cloudy when the drug was added and all became clear (same as liposomes with no drug added) after 15 min. After heating for 30 min all samples were placed on ice for 15 min. The loaded liposomes were vortexed and 100 μL of sample was kept as the “before column” and the rest transferred to microcentrifuge tubes and spun at 10,000 RPM for 5 min. The supernatants were purified on a Sephadex G25 column collected and analyzed by HPLC. The HPLC analysis of carfilzomib was performed on the same system as described for analysis of cholesterol. The mobile phase consists of A=0.1% TFA, B=0.1% TFA/MeOH with a gradient elution starting at 50% B and increasing to 83% B in 13 min with 7 min equilibration back to 50% B. The flow rate is 1.0 mL/min, column temperature is 30 C, 10 μl injection and detection by absorbance at 205 nm. The retention time of carfilzomib is 12.2 min. The lipid concentration is determined by analysis of the cholesterol by HPLC. […]
Napthelenedisulfonic acid (NDS) was dissolved in water and titrated with diethylamine to a final pH of 8.0 and concentration of 250 mM (500 mequivilents of anion/L). […]
To ensure complete removal of the DMSO added with carfilzomib, the liposomal carfilzomib samples were dialyzed in dialysis tubing having a molecular weight cut off of 12,000-14,000. The samples are dialyzed against 5 mM HEPES, 10% sucrose pH 6.5 (stirring at 4° C.) at volume that is 100 fold greater than the sample volume. The dialysate was changed after 2 h then 2 more times after 12 h each. The carfilzomib liposomes were again analyzed for drug and lipid concentration as described above. […]

[6] = Remote loading of aripiprazole into liposomes
Description: Liposomes (HSPC/Chol/PEG-DSPE 3/2/0.15 mol/mol/mol) containing 250 mM ammonium sulfate or 250 mM sodium sulfate were diluted in 1 mL of 50 mM citric acid, 10% (wt/wt) sucrose, pH 4.0 to a concentration of 6 mM phospholipid. 0.3 mg of aripiprazole was added from a stock solution of 15 mg/mL in DMSO, so that the final DMSO concentration was 2% (v/v). Fine precipitates were immediately observed after the drug was added to both liposome samples. The samples were heated at 65° C. for 30 min, the cooled on ice. The samples were filtered through a 0.2 um polyethersulfone syringe filter to remove any drug precipitates, followed by purification on a Sephadex G25 column equilibrated with HBS, pH 6.5 to remove any soluble extraliposome drug. The turbid fraction was collected and analyzed for lipid and drug as described above.

[7] = Aripiprazole precipitates from various solvents with liposomes, absorbance at 600 nm; conditions: drug initially dissolved in DMSO, 1-4-methylpyrrolidone, diethylenemonoethylether or polyethyleneglycol (MW400); 7.5% solvent; ammonium sulfate liposomes; 65°C 30 min
Description: Aripiprazole was dissolved in a range of solvents indicated below at 4 mg/mL. Liposomes composed of HSPC/Chol/PEG-DSPE (3/2/0.15 mol/mol/mol) that were prepared in 250 mM ammonium sulfate were used and diluted to 6 mM in Hepes buffered sucrose 10% (wt/wt) (HBSuc pH 6.5). 0.3 mg of drug was introduced by slow addition of each solvent while vortexing. The final solvent concentration was 7.5% for all samples. As controls, the drug was added from each solvent to the same volume of HBSuc pH 6.5 without the liposomes. The samples were heated at 65° C. for 30 min then cooled on ice.

[8] = 500 mM ammonium sulfate liposomes, highest input ratio of Example 10
[9] = [(NH4)2SO4] 250 mM, input drug/HSPC 167.3 g/mol

CC(C)C[C@H](NC(=O)[C@H](CCc1ccccc1)NC(=O)CN1CCOCC1)C(=O)N[C@@H](Cc1ccccc1)C(=O)N[C@@H](CC(C)C)C(=O)[C@@]1(C)CO1 [carfilzomib]
degradation of released drug by HPLC chromatogram ([1]; after loading and release from liposomes, compared with starting material): no degradation of carfilzomib had taken place | drug released with reverse gradient vs control with no reverse gradient ([1]; ammonium sulfate vs Hepes buffered saline): 6.5 fold | time to clarification of the solution ([2]; 250 mM ammonium sulfate liposomes, light scattering at 600 nm during loading): ≤ 15 min | clarification of the precipitate during loading ([2]; 250 mM sodium sulfate control liposomes, light scattering at 600 nm): do not show any clarification of the precipitate | DMSO concentration below which the drug remains in a precipitated form ([3]; 25°C): below 50 % vol/vol | DMSO concentration below which the drug remains in a precipitated form ([3]; 65°C): < 25 % vol/vol | DMSO required to completely dissolve the drug ([3]; 65°C, citric acid/DMSO mixture): > 25 % vol/vol | PDI ([4]; trapping agent (NH4)2SO4, drug added quickly): 0.062 | PDI ([4]; trapping agent (NH4)2SO4, drug added slowly): 0.035 | PDI ([4]; trapping agent mellitic acid): 0.08 | PDI ([4]; trapping agent napthelenedisulfonic acid): 0.039 | drug/carrier total lipid weight ratio (highest reached) [5, 8]: 0.4 | final drug payload (highest reached) [5, 8]: 469±4.9 g drug/mol HSPC | final drug to lipid ratio ([5]; 500 mM ammonium sulfate, input 639 g drug/mol HSPC): 440±10.2 g drug/mol HSPC | remote loading ([5]; DMSO absent): practically no loading | Drug payload/carrier weight ratio ([5]; [(NH4)2SO4] 250 mM, input drug/HSPC 91.8 g/mol): 0.07 g drug/g total lipid | Drug payload/carrier weight ratio [5, 9]: 0.11 g drug/g total lipid | efficiency [5, 9]: 76.0% | Drug payload/carrier weight ratio ([5]; [(NH4)2SO4] 250 mM, input drug/HSPC 251.8 g/mol): 0.15 g drug/g total lipid | Drug payload/carrier weight ratio ([5]; [(NH4)2SO4] 250 mM, input drug/HSPC 338.1 g/mol): 0.18 g drug/g total lipid | Drug payload/carrier weight ratio ([5]; [(NH4)2SO4] 250 mM, input drug/HSPC 432.8 g/mol): 0.20 g drug/g total lipid | Drug payload/carrier weight ratio ([5]; [(NH4)2SO4] 500 mM, input drug/HSPC 450.6 g/mol): 0.29 g drug/g total lipid | Drug payload/carrier weight ratio ([5]; [(NH4)2SO4] 500 mM, input drug/HSPC 545.9 g/mol): 0.32 g drug/g total lipid | Drug payload/carrier weight ratio ([5]; [(NH4)2SO4] 500 mM, input drug/HSPC 639.2 g/mol): 0.37 g drug/g total lipid | Drug payload/carrier weight ratio ([5]; [(NH4)2SO4] 500 mM, input drug/HSPC 758.7 g/mol): 0.40 g drug/g total lipid | efficiency of loading ([5]; drug from 10 mg/mL DMSO solution added in 5 increments over 1 min while vortexing): 96.3%±1.09% | efficiency of loading ([5]; drug from 10 mg/mL DMSO solution added quickly, 2% DMSO): 97.0%±2.38% | loading capacity, remote loaded (ammonium sulfate) vs sodium sulfate liposomes ([5]; drug input below/at 100 g drug/mol HSPC): > 3 fold | effect of time between precipitate formation and loading on loading efficiency ([5]; liposomes added immediately, after 1 h or 12 h delay): does not have a significant impact

O=C1CCc2ccc(OCCCCN3CCN(c4cccc(Cl)c4Cl)CC3)cc2N1 [aripiprazole]
loading efficiency ([6]; drug introduced as SBCD complex (from the pharmaceutical product Abilify), same concentration and loading conditions): 68% | Fold Increase NH4SO4/NaSO4 ([6]; loading into ammonium sulfate vs sodium sulfate liposomes): 49.3 fold | clarification of drug precipitate with liposomes (absorbance at 600 nm) [7]: clarified the drug precipitate
